Reference: patent publication US10087172B2, “Compounds and their methods of use” (AGIOS PHARMACEUTICALS, INC, priority 2012, dated 2018)

What follows are compounds tested against T1, glutaminase (GAC) (Homo sapiens, UniProt O94925) (assay: Glutaminase (GAC) coupled endpoint enzymatic assay (glutamate dehydrogenase/diaphorase/resazurin, Ex544/Em590)). Conditions: inhibition of glutaminase, tested in an assay of Example A or Example B; class symbols A-E.
T1 sequence (O94925 55-598 isoform O94925-3 limits assumed): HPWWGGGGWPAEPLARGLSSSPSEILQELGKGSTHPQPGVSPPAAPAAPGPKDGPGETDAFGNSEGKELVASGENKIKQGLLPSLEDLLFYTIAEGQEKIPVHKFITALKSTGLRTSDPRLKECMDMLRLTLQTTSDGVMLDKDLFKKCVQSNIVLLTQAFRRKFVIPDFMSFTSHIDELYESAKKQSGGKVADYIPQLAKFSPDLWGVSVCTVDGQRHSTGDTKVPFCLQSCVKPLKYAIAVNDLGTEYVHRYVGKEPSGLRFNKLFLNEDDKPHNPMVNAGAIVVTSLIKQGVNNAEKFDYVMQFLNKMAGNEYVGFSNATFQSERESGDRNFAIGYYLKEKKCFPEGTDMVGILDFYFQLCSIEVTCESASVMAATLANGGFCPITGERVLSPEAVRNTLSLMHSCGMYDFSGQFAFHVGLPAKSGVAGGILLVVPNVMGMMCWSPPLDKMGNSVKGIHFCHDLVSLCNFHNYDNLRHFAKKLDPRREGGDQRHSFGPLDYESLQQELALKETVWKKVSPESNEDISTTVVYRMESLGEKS
Assay type: biochemical
Excerpt: In certain embodiments, exemplary compounds of Formula I include the compounds described in Table 1 and in the Examples. A compound described herein may be tested for its ability to inhibit glutaminase, e.g., by an assay as described in the Examples. For simplicity, the inhibition activity of these compounds is represented as an IC50 tested in an assay of Example A or Example B in Table 1. […] “N/A” refers to compounds wherein the IC50 is unavailable.
In this example, the enzymatic activity of glutaminase is measured through a coupled endpoint assay. Glutamine and phosphate are supplied to GAC at a concentration equal to Km and AC50, respectively, and GAC concentration is adjusted to give a linear reaction for 60 minutes. The glutamate produced is converted to 2-OG by a kinetic excess of glutamate dehydrogenase. This second step is configured for 2× Km for NAD, since excess NAD is inhibitory. However, a kinetic excess of the third coupling enzyme, diaphorase, recycles NAD from NADH to keep the NAD concentration constant during the timecourse of the assay. Diaphorase, also supplied in kinetic excess, oxidizes NADH produced by GDH back to NAD with the concomitant reduction of rezasurin to the highly fluorescent resorufin. Resorufin in measured after the assay is stopped with SDS by Ex544/Em590. A reduction in the signal indicates inhibition of some component of the coupled enzyme system. Prospective hits are counterscreened against GDH/diaphorase alone to remove hits to the coupling enzyme system in a second assay.
2. Buffers 2× Buffer (300 mM NaCl, 100 mM HEPES pH 8.5, 0.1% BSA, 0.5 mM EDTA, 100 mM sodium phosphate pH 8.5) 5× Substrate Mix (1× Buffer final concentration, with 13 mM glutamine, 100 μM resazurin, 50 μg/ml diaphorase) 1.2× Enzyme Mix (1× Buffer final concentration, with 0.875 μg/ml GAC, 1.56 mM NAD, 6.25 units/ml GDH) Stop Mix (6% SDS in ddH2O) Reaction Procedure 1. Add 1 μl compound in 100% DMSO 2. Add 40 μl of Enzyme Mix and incubate for 60 minute at room temperature 3. Add 10 μl of Substrate Mix to start reaction 4. Stop reaction with 25 μl of 6% SDS and read Ex544 Em 590

Row | SMILES | IC50 [nM]
1 | COc1cccc(CC(=O)Nc2nnc([C@H]3CCC[C@H](c4nnc(NC(=O)Cc5cccc(OC)c5OC)s4)C3)s2)c1OC [Compound 112, N,N′-(5,5′-((1S,3S)-cyclohexane-1,3-diyl)bis(1,3,4-thiadiazole-5,2-diyl))bis(2-(2,3-dimethoxyphenyl)acetamide)] | < 100
2 | CSCCC(=O)Nc1nnc([C@H]2CCC[C@H](c3nnc(NC(=O)CCSC)s3)C2)s1 [Compound 46, N,N′-(5,5′-((1S,3S)-cyclohexane-1,3-diyl)bis(1,3,4-thiadiazole-5,2-diyl))bis(3-(methylthio)propanamide)] | 100 to 500
3 | O=C(Nc1nnc([C@H]2CCC[C@H](c3nnc(NC(=O)c4ccccc4)s3)C2)s1)c1ccccc1 [Compound 39, N,N′-(5,5′-((1S,3S)-cyclohexane-1,3-diyl)bis(1,3,4-thiadiazole-5,2-diyl))dibenzamide] | 1000 to 2000
4 | O=C(CN1CCCC1=O)Nc1nnc([C@H]2CCC[C@H](c3nnc(NC(=O)CN4CCCC4=O)s3)C2)s1 [Compound 85, N,N′-(5,5′-((1S,3S)-cyclohexane-1,3-diyl)bis(1,3,4-thiadiazole-5,2-diyl))bis(2-(2-oxopyrrolidin-1-yl)acetamide)] | 500 to 1000
5 | O=C(Cc1cncc(N2CC(F)(F)C2)n1)Nc1nnc([C@H]2CCC[C@H](c3nnc(NC(=O)Cc4cncc(N5CC(F)(F)C5)n4)s3)C2)s1 [Compound 354] | < 100
6 | O=C(Nc1nnc([C@H]2CCC[C@H](c3nnc(NC(=O)C4CCOC4)s3)C2)s1)C1CCOC1 (stereo partly drawn) [Compound 48, N,N′-(5,5′-((1S,3S)-cyclohexane-1,3-diyl)bis(1,3,4-thiadiazole-5,2-diyl))bis(tetrahydrofuran-3-carboxamide)] | 500 to 1000
7 | CC(=O)Nc1cccc(CC(=O)Nc2nnc([C@H]3CCC[C@H](c4nnc(NC(=O)Cc5cccc(NC(C)=O)c5)s4)C3)s2)c1 [Compound 65, N,N′-(5,5′-((1S,3S)-cyclohexane-1,3-diyl)bis(1,3,4-thiadiazole-5,2-diyl))bis(2-(3-acetamidophenyl)acetamide)] | < 100
8 | CN(C)c1cccc(CC(=O)Nc2nnc([C@H]3CCC[C@H](c4nnc(NC(=O)Cc5cccc(N(C)C)n5)s4)C3)s2)n1 (single isomer, unassigned) [Compound 105] | < 100
9 | Nc1cccc(CC(=O)Nc2nnc([C@H]3CCC[C@H](c4nnc(NC(=O)Cc5cccc(N)c5)s4)C3)s2)c1 [Compound 53, N,N′-(5,5′-((1S,3S)-cyclohexane-1,3-diyl)bis(1,3,4-thiadiazole-5,2-diyl))bis(2-(3-aminophenyl)acetamide)] | < 100

Next, values leading:

Row | IC50 [nM] | SMILES
10 | 100 to 500 | O=C(Cc1c(F)cccc1F)Nc1nnc([C@H]2CCC[C@H](c3nnc(NC(=O)Cc4c(F)cccc4F)s3)C2)s1 [Compound 89]
11 | 100 to 500 | O=C(Cc1ccc(Cl)cc1)Nc1nnc([C@H]2CCC[C@H](c3nnc(NC(=O)Cc4ccc(Cl)cc4)s3)C2)s1 [Compound 50]
12 | < 100 | N#Cc1cccc(CC(=O)Nc2nnc([C@H]3CCC[C@H](c4nnc(NC(=O)Cc5cccc(C#N)c5)s4)C3)s2)c1 (single isomer, unassigned) [Compound 73]
13 | < 100 | O=C(Cc1ccnc(N2CC(F)(F)C2)n1)Nc1nnc([C@H]2CCC[C@H](c3nnc(NC(=O)Cc4ccnc(N5CC(F)(F)C5)n4)s3)C2)s1 [Compound 346, N,N′-(5,5′-((1R,3R)-cyclohexane-1,3-diyl)bis(1,3,4-thiadiazole-5,2-diyl))bis(2-(2-(3,3-difluoroazetidin-1-yl)pyrimidin-4-yl)acetamide)]
14 | < 100 | O=C(Cc1ncccn1)Nc1nnc([C@H]2CCC[C@H](c3nnc(NC(=O)Cc4ncccn4)s3)C2)s1 [Compound 27, N,N′-(5,5′-((1S,3S)-cyclohexane-1,3-diyl)bis(1,3,4-thiadiazole-5,2-diyl))bis(2-(pyrimidin-2-yl)acetamide)]
